# Measurements published in ChEMBL document CHEMBL1155324, “Synthesis and evaluation of a series of 2,4-diaminopyridine derivatives as potential positron emission tomography tracers for neuropeptide Y Y1 receptors” (Bioorg Med Chem Lett, 2009).
# Experiments:
# [1] = Octanol-water distribution coefficient log Dat pH 7.4 by water-plug aspiration/injection method combined with HPLC-mass spectrometry
# [2] = biological target: T1, Neuropeptide Y receptor type 1 (Homo sapiens, UniProt P25929); test: Displacement of [125I]-PYY from human NPYY1 receptor overexpressed in CHO cell membrane after 120 mins by scintillation counting; format: cell membranes
# T1 sequence (P25929 whole entry): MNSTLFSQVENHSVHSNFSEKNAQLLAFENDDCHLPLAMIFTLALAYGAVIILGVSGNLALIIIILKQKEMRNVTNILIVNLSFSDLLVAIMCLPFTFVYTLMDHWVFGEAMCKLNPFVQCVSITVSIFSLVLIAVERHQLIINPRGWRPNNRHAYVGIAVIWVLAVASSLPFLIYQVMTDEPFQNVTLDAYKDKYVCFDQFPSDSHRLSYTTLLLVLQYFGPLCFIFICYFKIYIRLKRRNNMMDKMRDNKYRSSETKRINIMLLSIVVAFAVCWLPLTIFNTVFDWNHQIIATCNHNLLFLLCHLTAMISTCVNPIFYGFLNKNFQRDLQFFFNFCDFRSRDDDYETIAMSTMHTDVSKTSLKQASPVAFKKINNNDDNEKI
# [3] = biological target: Neuropeptide Y receptor type 4 (Homo sapiens, UniProt P50391); test: Displacement of [125I]-PYY from human NPYY4 receptor
# Sequence of Neuropeptide Y receptor type 4 (P50391 whole entry): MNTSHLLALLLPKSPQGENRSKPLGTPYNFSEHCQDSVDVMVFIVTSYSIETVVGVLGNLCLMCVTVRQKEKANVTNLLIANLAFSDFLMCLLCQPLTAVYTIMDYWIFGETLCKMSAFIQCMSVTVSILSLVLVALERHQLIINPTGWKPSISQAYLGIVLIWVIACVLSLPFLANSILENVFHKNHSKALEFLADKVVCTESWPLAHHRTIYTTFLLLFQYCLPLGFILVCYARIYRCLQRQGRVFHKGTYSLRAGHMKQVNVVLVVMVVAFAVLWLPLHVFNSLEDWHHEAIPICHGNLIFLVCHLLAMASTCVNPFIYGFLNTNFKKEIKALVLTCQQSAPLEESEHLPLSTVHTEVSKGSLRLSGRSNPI
# [4] = biological target: T2, Neuropeptide Y receptor type 2 (Homo sapiens, UniProt P49146); test: Displacement of [125I]-PYY from human NPYY2 receptor
# T2 sequence (P49146 whole entry): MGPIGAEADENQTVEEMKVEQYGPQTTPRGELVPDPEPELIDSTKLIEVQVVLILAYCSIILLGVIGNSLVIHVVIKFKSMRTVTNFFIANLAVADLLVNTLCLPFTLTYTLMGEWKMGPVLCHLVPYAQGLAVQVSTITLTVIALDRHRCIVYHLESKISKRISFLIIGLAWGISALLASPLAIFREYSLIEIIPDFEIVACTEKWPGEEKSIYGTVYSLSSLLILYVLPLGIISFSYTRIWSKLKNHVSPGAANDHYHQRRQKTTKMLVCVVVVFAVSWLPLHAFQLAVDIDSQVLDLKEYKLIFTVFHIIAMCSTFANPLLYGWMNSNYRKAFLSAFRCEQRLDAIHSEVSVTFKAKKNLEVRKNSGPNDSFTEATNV
# [5] = biological target: T3, Neuropeptide Y receptor type 5 (Homo sapiens, UniProt Q15761); test: Displacement of [125I]-PYY from human NPYY5 receptor
# T3 sequence (Q15761 whole entry): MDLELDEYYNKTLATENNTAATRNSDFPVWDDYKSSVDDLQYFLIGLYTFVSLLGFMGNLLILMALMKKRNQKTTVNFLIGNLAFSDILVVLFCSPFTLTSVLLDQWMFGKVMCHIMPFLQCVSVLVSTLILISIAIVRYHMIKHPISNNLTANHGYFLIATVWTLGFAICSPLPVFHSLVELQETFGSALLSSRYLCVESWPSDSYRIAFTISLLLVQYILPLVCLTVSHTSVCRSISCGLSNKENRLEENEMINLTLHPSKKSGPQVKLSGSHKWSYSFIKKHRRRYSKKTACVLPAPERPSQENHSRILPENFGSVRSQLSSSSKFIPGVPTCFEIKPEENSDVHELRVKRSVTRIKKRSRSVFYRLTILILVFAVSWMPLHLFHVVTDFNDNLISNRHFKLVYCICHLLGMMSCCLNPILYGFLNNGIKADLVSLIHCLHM
# [6] = Ratio of permeability from basal to apical side to apical to basal side of human KB-3-1 cells by scintillation counting; format: ADME, cell-based
Structure (SMILES),logD [1],IC50 [2],IC50 [3],IC50 [4],IC50 [5],efflux ratio [6]
Cc1nc(SCc2cc(N3CCOCC3)cc(NCc3ccnc(F)c3)n2)oc1C,3.1,5.2 nM,–,–,–,–
Cc1cccc(CNc2cc(N3CCS(=O)(=O)CC3)cc(CSc3nc(C)c(C)o3)n2)n1,2.2,1.7 nM,–,–,–,–
Cc1nc(SCc2cc(N3CCSCC3)cc(NCc3cccc(F)n3)n2)oc1C,3.5,–,–,–,–,–
Cc1nc(SCc2cc(N3CCS(=O)(=O)CC3)cc(NCc3cccc(F)n3)n2)oc1C,2.3,8 nM,–,–,–,–
Cc1nc(SCc2cc(N3CCOCC3)cc(NCc3cccc(F)n3)n2)oc1C,3.1,1.5 nM,–,–,–,–
CCc1sc(SCc2cc(N3CCOCC3)cc(NCc3cccc(C)n3)n2)nc1CF,–,–,> 10000 nM,> 10000 nM,> 10000 nM,–
Cc1cccc(CNc2cc(N3CCOCC3)cc(CSc3nc(CF)c(C)s3)n2)n1,2.7,–,> 10000 nM,> 10000 nM,> 10000 nM,1.8
Cc1cccc(CNc2cc(N3CCOCC3)cc(CSc3nc4c(o3)CCCC4)n2)n1,3.5,0.46 nM,–,–,–,–
CCc1oc(SCc2cc(N3CCOCC3)cc(NCc3cccc(C)n3)n2)nc1C,3.1,0.39 nM,–,–,–,–
Cc1nc(SCc2cc(N3CCOCC3)cc(NCc3cccc(OCCF)n3)n2)oc1C,3.9,19 nM,–,–,–,–
Cc1cccc(CNc2cc(N3CCOCC3)cc(CSc3nc(C)c(C)s3)n2)n1,2.9,0.27 nM,–,–,–,–
Cc1cccc(CNc2cc(N3CCOCC3)cc(CSc3nc(C)c(C)o3)n2)n1,2.8,0.69 nM,–,–,–,–
Cc1nc(SCc2cc(N3CCOCC3)cc(NCc3cccc(COCCF)n3)n2)oc1C,2.6,10 nM,–,–,–,–
Cc1nc(SCc2cc(N3CCOCC3)cc(NCc3ccc(F)nc3)n2)oc1C,3,21 nM,–,–,–,–
Cc1nc(SCc2cc(N3CCOCC3)cc(NCc3cccc(CF)n3)n2)oc1C,3,1.8 nM,–,–,–,–
Cc1cccc(CNc2cc(N3CCOCC3)cc(CSc3nc(C)c(CF)s3)n2)n1,2.3,0.56 nM,–,–,–,–
Cc1nc(SCc2cc(N3CCOCC3)cc(NCc3cccnc3F)n2)oc1C,3,7.7 nM,–,–,–,–
COCc1cccc(CNc2cc(N3CCOCC3)cc(CSc3nc(C)c(C)o3)n2)n1,2.8,4.3 nM,–,–,–,–
Cc1cccc(CNc2cc(N3CCSCC3)cc(CSc3nc(C)c(C)o3)n2)n1,3.6,0.16 nM,–,–,–,–
